Patent publication US20170121322A1, “BET-PROTEIN INHIBITING 3,4-DIHYDROPYRIDO[2,3-B]PYRAZINONES WITH META-SUBSTITUTED AROMATIC AMINO- OR ETHER GROUPS” (Bayer Pharma Aktiengesellschaft, priority 2014, published 2017)

Experiments:
[1] = molecular target: T1, BRD4 bromo domain 1 [BRD4(1)] (Homo sapiens, UniProt O60885); assay: BRD4(1)/acetylated peptide H4 TR-FRET binding assay; conditions: His6-BRD4(1) (aa 67-152) vs acetylated histone H4 peptide
T1 construct: N-terminally His6-tagged BRD4(1) (amino acids 67-152); made in house; host or cells: E. coli
From the text: To assess the BRD4(1) binding strength of the substances described in this application, the ability thereof to inhibit the interaction between BRD4(1) and acetylated histone H4 in a dose-dependent manner was quantified.
For this purpose, a time-resolved fluorescence resonance energy transfer (TR-FRET) assay was used, which measures the binding between N-terminally His6-tagged BRD4(1) (amino acids 67-152) and a synthetic acetylated histone H4 (Ac-H4) peptide with sequence GRGK(Ac)GGK(Ac)GLGK(Ac)GGAK(Ac)RHGSGSK-biotin. The recombinant BRD4(1) protein produced in-house according to Filippakopoulos et al., Cell, 2012, 149:214-231 was expressed in E. coli and purified by means of (Ni-NTA) affinity and (Sephadex G-75) size exclusion chromatography. The Ac-H4 peptide can be purchased, for example, from Biosyntan (Berlin, Germany).
In the assay, typically 11 different concentrations of each substance (0.1 nM, 0.33 nM, 1.1 nM, 3.8 nM, 13 nM, 44 nM, 0.15 μM, 0.51 μM, 1.7 μM, 5.9 μM and 20 μM) were analysed as duplicates on the same microtitre plate. For this purpose, 100-fold concentrated solutions in DMSO were prepared by serial dilutions (1:3.4) of a 2 mM stock solution into a clear, 384-well microtitre plate (Greiner Bio-One, Frickenhausen, Germany). From this, 50 nl were transferred into a black test plate (Greiner Bio-One, Frickenhausen, Germany). The test was started by the addition of 2 μl of a 2.5-fold concentrated BRD4(1) solution (final concentration typically 10 nM in the 5 μl of reaction volume) in aqueous assay buffer [50 mM HEPES pH 7.5, 50 mM sodium chloride (NaCl), 0.25 mM CHAPS and 0.05% serum albumin (BSA)] to the substances in the test plate. This was followed by a 10-minute incubation step at 22° C. for the pre-equilibration of putative complexes between BRD4(1) and the substances. Subsequently, 3 μl of a solution of 1.67 times the concentration (in assay buffer) consisting of Ac-H4 peptide (83.5 nM) and TR-FRET detection reagents [16.7 nM anti-6His-XL665 and 3.34 nM streptavidin cryptate (both from Cisbio Bioassays, Codolet, France), and 668 mM potassium fluoride (KF)] were added.
The mixture was then incubated in the dark at 22° C. for one hour and then at 4° C. for at least 3 hours and for no longer than overnight. The formation of BRD4(1)/Ac-H4 complexes was determined by the measurement of the resonance energy transfer from the streptavidin-Eu cryptate to the anti-6His-XL665 antibody present in the reaction. For this purpose, the fluorescence emission was measured at 620 nm and 665 nm after excitation at 330-350 nm in a TR-FRET measuring instrument, for example a Rubystar or Pherastar (both from BMG Lab Technologies, Offenburg, Germany) or a Viewlux (Perkin-Elmer). The ratio of the emissions at 665 nm and at 622 nm was taken as an indicator of the amount of BRD4(1)/Ac-H4 complexes formed.
The data (ratios) obtained were normalized, with 0% inhibition corresponding to the mean from the measurements for a set of controls (typically 32 data points) in which all the reagents were present. In these, in place of test substances, 50 nl of DMSO (100%) were used. Inhibition of 100% corresponded to the mean from the measurements for a set of controls (typically 32 data points) in which all the reagents except BRD4(1) were present. The IC50 was determined by regression analysis based on a 4-parameter equation (minimum, maximum, IC50, Hill; Y=Max+(Min−Max)/(1+(X/IC50)Hill).

[2] = system: MOLM-13 cells; assay: Cell proliferation assay MOLM-13, method 1 (alamarBlue); assay type: cell-based; conditions: Homo sapiens, acute myeloid leukaemia cells, 4000 cells/well, 96-well, 96 hours
Experimental: (§1) In accordance with the invention, the ability of the substances to inhibit cell proliferation was determined. Cell viability was determined by means of the alamarBlue® reagent (Invitrogen) in a Victor X3 Multilabel Reader (Perkin Elmer). The excitation wavelength was 530 nm and the emission wavelength […].
The MOLM-13 cells (DSMZ, ACC 554) were seeded at a concentration of 4000 cells/well in 100 μl of growth medium (RPMI1640, 10% FCS) on 96-well microtitre plates (method 1).
(§2) After overnight incubation at 37° C., the fluorescence values (CI values) were determined. Then the plates were treated with various substance dilutions (1E-5 M, 3E-6 M, 1E-6 M, 3E-7 M, 1E-7 M, 3E-8 M, 1E-8 M) and incubated at 37° C. over 96 hours (MOLM-13, B16F10, CHL-1 cells) or 120 hours (MOLP-8 cells). Subsequently, the fluorescence values were determined (CO values). For the data analysis, the CI values were subtracted from the CO values and the results were compared between cells which had been treated with various dilutions of the substance or only with buffer solution. The IC50 values (substance concentration needed for 50% inhibition of cell proliferation) were calculated therefrom.
(§3) The substances were tested in the cell lines in Table 2, which represent the indications specified by way of example: […]

[3] = system: B16F10 cells; assay: Cell proliferation assay B16F10 (alamarBlue); assay type: cell-based; conditions: Mus musculus, B16-F10, melanoma (BRAF wild-type) cells, 96 hours
Experimental: as §1
The B16F10 cells (ATCC, CRL-6475) were seeded at a concentration of 300-500 cells/well in 100 μl of growth medium (DMEM with phenol red, 10% FCS) on 96-well microtitre plates.
as §2, §3

[4] = system: CHL-1 cells; assay: Cell proliferation assay CHL-1 (alamarBlue); assay type: cell-based; conditions: Homo sapiens, melanoma (BRAF wild-type) cells, 96 hours
Experimental: as §1
The CHL-1 cells (ATCC, CRL-9446) were seeded at a concentration of 1000 cells/well in 100 μl of growth medium (DMEM with glutamine, 10% FCS) on 96-well microtitre plates.
as §2, §3

With `COc1ccc(S(=O)(=O)C2CCOCC2)cc1Nc1ccc2c(n1)N(C1CCN(C)CC1)[C@H](C)C(=O)N2C` [Example 22, (3R)-6-{[2-Methoxy-5-(tetrahydro-2H-pyran-4-ylsulphonyl)phenyl]amino}-1,3-dimethyl-4-(1-methylpiperidin-4-yl)-3,4-dihydropyrido[2,3-b]pyrazin-2(1H)-one] as the compound, how does the IC50 [1] read?
Its IC50 is 23 nM.

What about the IC50 [2] of the same compound?
Its IC50 is 99 nM.

And the IC50 [3]?
Its IC50 is 140 nM.

What about the IC50 [4] of the same compound?
The IC50 was 21 nM.

Which results are given for `CC(C)S(=O)(=O)c1cccc(Nc2ccc3c(n2)N(C2CCOCC2)[C@H](C)C(=O)N3C)c1` [Example 7, (3R)-6-{[3-(Isopropylsulphonyl)phenyl]amino}-1,3-dimethyl-4-(tetrahydro-2H-pyran-4-yl)-3,4-dihydropyrido[2,3-b]pyrazin-2(1H)-one]?
IC50 [1]: 28 nM; IC50 [2]: 111 nM; IC50 [3]: 104 nM; IC50 [4]: 51 nM

What does the source list for `COc1ccc(S(=O)(=O)C(C)C)cc1Nc1ccc2c(n1)N(C1CCN(CC(F)(F)F)CC1)[C@H](C)C(=O)N2C` [Example 28, (3R)-6-{[5-(Isopropylsulphonyl)-2-methoxyphenyl]amino}-1,3-dimethyl-4-[1-(2,2,2-trifluoroethyl)piperidin-4-yl]-3,4-dihydropyrido[2,3-b]pyrazin-2(1H)-one]?
IC50 [1]: 24 nM; IC50 [2]: 26 nM; IC50 [3]: 21 nM; IC50 [4]: 25 nM

How did the IC50 [1] turn out when `Cc1cc(Nc2ccc3c(n2)N(C2CCOCC2)[C@H](C)C(=O)N3C)ccn1` [Example 42, (3R)-1,3-Dimethyl-6-[(2-methylpyridin-4-yl)amino]-4-(tetrahydro-2H-pyran-4-yl)-3,4-dihydropyrido[2,3-b]pyrazin-2(1H)-one] was run?
The IC50 was 228 nM.

And the IC50 [2]?
Its IC50 is 686 nM.

What about the IC50 [3] of the same compound?
Its IC50 is 1080 nM.

What about the IC50 [4] of the same compound?
Its IC50 is 445 nM.

With `COc1ccc(S(=O)(=O)C2CC2)cc1Nc1ccc2c(n1)N(C(C)C)[C@H](C)C(=O)N2C` [Example 15, (3R)-6-{[5-(Cyclopropylsulphonyl)-2-methoxyphenyl]amino}-4-isopropyl-1,3-dimethyl-3,4-dihydropyrido[2,3-b]pyrazin-2(1H)-one] as the compound, how does the IC50 [1] read?
The IC50 was 73 nM.

And the IC50 [2]?
The IC50 was 149 nM.

And the IC50 [3]?
The IC50 was 132 nM.

What about the IC50 [4] of the same compound?
Its IC50 is 52 nM.

What does the source list for `C[C@@H]1C(=O)N(C)c2ccc(Nc3cccc(S(C)(=O)=O)c3)nc2N1C1CCOCC1` [Example 1, (3R)-1,3-Dimethyl-6-{[3-(methylsulphonyl)phenyl]amino}-4-(tetrahydro-2H-pyran-4-yl)-3,4-dihydropyrido[2,3-b]pyrazin-2(1H)-one]?
IC50 [1]: 75 nM; IC50 [2]: 191 nM; IC50 [3]: 285 nM; IC50 [4]: 180 nM

What does the source list for `COc1ccc(S(=O)(=O)C2CC2)cc1Nc1ccc2c(n1)N(C1CCN(C)CC1)[C@H](C)C(=O)N2C` [Example 12, (3R)-6-{[5-(Cyclopropylsulphonyl)-2-methoxyphenyl]amino}-1,3-dimethyl-4-(1-methylpiperidin-4-yl)-3,4-dihydropyrido[2,3-b]pyrazin-2(1H)-one]?
IC50 [1]: 19 nM; IC50 [2]: 20 nM; IC50 [3]: 81 nM; IC50 [4]: 13 nM

`CC1C(=O)N(C)c2ccc(Nc3cccc(S(C)(=O)=O)c3)nc2N1c1ccccc1` (centres unmarked) [Example 17, 1,3-Dimethyl-6-{[3-(methylsulphonyl)phenyl]amino}-4-phenyl-3,4-dihydropyrido[2,3-b]pyrazin-2(1H)-one] was tested. Which IC50 [1] did it give?
The IC50 was 303 nM.

And the IC50 [2]?
The IC50 was 1410 nM.

And the IC50 [3]?
The IC50 was 1100 nM.

And the IC50 [4]?
The IC50 was 800 nM.

With `COc1cc(Nc2ccc3c(n2)N(C2CCOCC2)[C@H](C)C(=O)N3C)cc(S(C)(=O)=O)c1` [Example 40, (3R)-6-{[3-Methoxy-5-(methylsulphonyl)phenyl]amino}-1,3-dimethyl-4-(tetrahydro-2H-pyran-4-yl)-3,4-dihydropyrido[2,3-b]pyrazin-2(1H)-one] as the compound, how does the IC50 [1] read?
Its IC50 is 63 nM.

What about the IC50 [2] of the same compound?
Its IC50 is 121 nM.

And the IC50 [3]?
Its IC50 is 269 nM.

Which IC50 [1] does the source give for `COc1ccc(S(=O)(=O)C(C)C)cc1Nc1ccc2c(n1)N(C1CCOCC1)[C@H](C)C(=O)N2C` [Example 9, (3R)-6-{[5-(Isopropylsulphonyl)-2-methoxyphenyl]amino}-1,3-dimethyl-4-(tetrahydro-2H-pyran-4-yl)-3,4-dihydropyrido[2,3-b]pyrazin-2(1H)-one] here?
Its IC50 is 25 nM.

And the IC50 [2]?
Its IC50 is 42 nM.

And the IC50 [3]?
The IC50 was 34 nM.

What about the IC50 [4] of the same compound?
Its IC50 is 19 nM.

How did the IC50 [1] turn out when `COc1ccc(S(=O)(=O)C(F)(F)F)cc1Nc1ccc2c(n1)N(C1CCOCC1)[C@H](C)C(=O)N2C` [Example 39, (3R)-6-({2-Methoxy-5-[(trifluoromethyl)sulphonyl]phenyl}amino)-1,3-dimethyl-4-(tetrahydro-2H-pyran-4-yl)-3,4-dihydropyrido[2,3-b]pyrazin-2(1H)-one] was run?
The IC50 was 46 nM.

What about the IC50 [2] of the same compound?
Its IC50 is 137 nM.

And the IC50 [3]?
The IC50 was 84 nM.

Which IC50 [1] does the source give for `COc1ccc(S(C)(=O)=O)cc1Nc1ccc2c(n1)N(C1CCNCC1)[C@H](C)C(=O)N2C` [Example 27, (3R)-6-{[2-Methoxy-5-(methylsulphonyl)phenyl]amino}-1,3-dimethyl-4-(piperidin-4-yl)-3,4-dihydropyrido[2,3-b]pyrazin-2(1H)-one] here?
Its IC50 is 54 nM.

And the IC50 [2]?
The IC50 was 69 nM.

And the IC50 [4]?
Its IC50 is 311 nM.

What does the source list for `COc1ccc(S(=O)(=O)C(C)C)cc1Nc1ccc2c(n1)N(C1CCN(CCC(F)(F)F)CC1)[C@H](C)C(=O)N2C` [Example 31, (3R)-6-{[5-(Isopropylsulphonyl)-2-methoxyphenyl]amino}-1,3-dimethyl-4-[1-(3,3,3-trifluoropropyl)piperidin-4-yl]-3,4-dihydropyrido[2,3-b]pyrazin-2(1H)-one]?
IC50 [1]: 23 nM; IC50 [2]: 14 nM; IC50 [4]: 12 nM

Which IC50 [1] does the source give for `COc1ccc(S(=O)(=O)C(C)C)cc1Nc1ccc2c(n1)N(C1CCN(CC(F)F)CC1)[C@H](C)C(=O)N2C` [Example 29, (3R)-4-[1-(2,2-Difluoroethyl)piperidin-4-yl]-6-{[5-(isopropylsulphonyl)-2-methoxyphenyl]amino}-1,3-dimethyl-3,4-dihydropyrido[2,3-b]pyrazin-2(1H)-one] here?
Its IC50 is 24 nM.

And the IC50 [3]?
The IC50 was 40 nM.
